In patent publication US20090093069A1, “Topiramate Immunoassays” (ARK Diagnostics, Inc., priority 2007, published 2009):
Like-named read-outs stand apart in the source and are kept apart here.

How the values were obtained:
[1] = tested on: patients with drug refractory (mostly partial) epilepsy; settings: Stephen et al. (2000), 170 patients, cited from earlier work
[2] = cited from earlier work; for mean topiramate serum concentration: Lhatoo et al. (2000); for topiramate concentrations: May et al. (2002)
[3] = tested on: antibodies raised with immunogens (10-KLH, 12-KLH, 12-L-KLH, 19-KLH, 22-KLH and 25-KLH); test: Enzyme-based assay format, reactivity of antibodies raised with the immunogens; assay type: binding
Description: All the prepared haptens have utility for KLH and G6PDH bio-conjugation. immunogens (10-KLH, 12-KLH, 12-L-KLH, 19-KLH, 22-KLH and 25-KLH) were used to raise antibodies.

[4] = tested on: rabbit polyclonal antibody #11341; test: ARK homogeneous enzyme immunoassay, topiramate calibration curve on HITACHI 917; assay type: binding; settings: conjugate 12-G6PDH
Protocol: Rabbit polyclonal antibody […] was used to generate a calibration curve, and evaluate assay precision, accuracy and specificity. The antibody was added into the antibody diluent to prepare the antibody reagent. The antibody reagent consists of antibody as prepared above, buffer, stabilizers, preservatives, and the substrates for the enzyme conjugate NAD and glucose 6 phosphate. Enzyme conjugate comprising compound (12-G6PDH) G6PDH was added into the conjugate reagent to prepare the enzyme conjugate reagent. The enzyme conjugate reagent consists of the conjugate, buffer, stabilizers and preservatives. Enzyme conjugate (12-G6PDH) was used with rabbit polyclonal antibody #11341 in examples below. This technique is generally applicable to produce polyclonal antibodies to diacetonefructose derivatives and assess their utility.
The diacetonefructose derivative antibodies and enzyme conjugates may be advantageously used in a homogeneous assay format to detect topiramate in samples. An enzyme immunoassay or ARK Assay, which is a homogeneous enzyme immunoassay experiment, is performed to test the polyclonal antibodies prepared as in Example 17. The ARK Assay for topiramate is conducted using a liquid, ready-to-use, two-reagent kit. A clinical chemistry analyzer useful to set up the assay is HITACHI 917. The HITACHI 917 is an automated biochemistry analyser used by medical laboratories to process biological fluid specimens, such as urine, cerebrospinal fluid, and most commonly, blood. Manufactured by Boehringer Mannheim, the HITACHI 917 is a commonly used routine chemical bichromatic analyzer. Topiramate containing sample is incubated with antibody reagent followed by the addition of the enzyme conjugate reagent. The enzyme conjugate activity decreases upon binding to the antibody. The enzyme conjugate, which is not bound to the antibody, catalyzes the oxidation of glucose 6-phosphate (G6P). The oxidation of G6P is coupled with the reduction of NAD^+ to NADH, which can be measured at 340 nm. The change in the absorbance at 340 nm can be measured spectrophotometrically. The topiramate concentration in a specimen can be measured in terms of G6PDH activity. The increase in the rate at 340 nm is due to the formation of NADH and is proportional to the enzyme conjugate activity. An assay calibration curve is generated using topiramate spiked into negative calibrator matrix (See Example 19 below). The assay rate increases with increasing the concentration of drug in the sample.
Topiramate was dissolved in methanol to give a stock solution of 1000 μg/mL. Pooled human serum was aliquoted in 10 mL portions. Topiramate stock solution was added to the aliquots of human serum in preparing a series of known concentrations of topiramate calibrators ranging from 0 to 60 μg/mL. Similarly, Quality Control samples were prepared (2.0, 10.0 and 40.0 μg/mL). Antibody Reagent was prepared by adding antibody […] to antibody/substrate diluent. The antibody/substrate reagent was assayed with Enzyme Conjugate Reagent (12-G6PDH). Calibration curves were generated on the HITACHI 917 automated clinical chemistry analyzer, as described in Example 18 by assaying each level in duplicate.

serum proteins = settings: cited from earlier work
[5] = cited from earlier work
[6] = dose escalation add-on studies, morning serum concentrations

reactivity of the antibodies [3]: good reactivity
Reaction Rate (mA/min) Average of Duplicates ([4]; topiramate calibrator 3.5 μg/mL in human serum): 406.0 mA/min
Reaction Rate (mA/min) Average of Duplicates ([4]; topiramate calibrator 7.5 μg/mL in human serum): 442.4 mA/min
Reaction Rate (mA/min) Average of Duplicates ([4]; topiramate calibrator 15.0 μg/mL in human serum): 478.3 mA/min
Reaction Rate (mA/min) Average of Duplicates ([4]; topiramate calibrator 30.0 μg/mL in human serum): 511.6 mA/min
Reaction Rate (mA/min) Average of Duplicates ([4]; topiramate calibrator 60.0 μg/mL in human serum): 542.4 mA/min
Compound: CC1(C)O[C@@H]2[C@@H](CO[C@@]3(COS(N)(=O)=O)OC(C)(C)O[C@@H]23)O1 [Topiramate, 2,3:4,5-bis-O-(1-methylethylidene)-β-D-fructopyranose sulfamate]
patients with favorable response ([1]; wide range of doses and serum concentrations): 70%
patients becoming seizure-free [1]: 23%
serum concentrations at which optimal response is most likely ([2]; Christensen et al. (2003), concentration-controlled trial): 2000 to 10000 ng/mL
serum topiramate concentrations ([2]; Johannessen et al. (2003), patients treated with therapeutic doses, most studies): 5 to 20 mg/L
mean topiramate serum concentration ([2]; patients in whom topiramate was stopped because of adverse effects): 6 mg/L
mean topiramate serum concentration ([2]; responders): 7 mg/L
mean topiramate serum concentration ([2]; seizure-free patients): 9 mg/L
topiramate concentrations ([2]; considerably higher doses (up to 2000 mg/day)): ≤ 27 mg/L
topiramate concentrations ([2]; doses of 125-400 mg in addition to other AEDs): 2.4 to 8 mg/L
serum topiramate concentrations in patients with improvement (trend) ([2]; Penovich et al. (1997), compared with those without seizure reduction): > 10 mg/L
systemic topiramate concentrations ([2]; considerably higher doses, up to 2000 mg): ≤ 80 µmol·L
serum concentrations at which a reduction in seizure control was seen [2, 6]: greater than 75 μmol/L
serum concentrations with significant increase in side effects [2, 6]: > 60 µM
bound to serum proteins (serum proteins): 15%
change of serum topiramate concentrations ([5]; clearance decreased by propranolol, amitriptyline, lithium, and sumatriptan): slightly increased
Tmax ([5]; following oral ingestion): 2 to 4 h
bioavailability ([5]; following oral ingestion): 81-95%
Vd ([5]; human, in vivo): 0.6 to 1 L/kg
fraction of the dose metabolized ([5]; human, in vivo): Approximately 50%
serum half-life ([5]; human, in vivo): 20 to 30 h
half-life ([5]; patients co-prescribed enzyme-inducing AEDs): about 12 h
lowering of topiramate concentrations ([5]; with valproic acid): 10-15%
